# From ChEMBL document CHEMBL4043204, “meso-Dihydroguaiaretic acid derivatives with antibacterial and antimycobacterial activity” (Bioorg Med Chem, 2017)
# Active and inactive are the calls of the source. The rule behind the calls is not given here.
# System: Stenotrophomonas maltophilia
# Experiment: Antibacterial activity against trimethoprim-sulfamethoxazole-resistant Stenotrophomonas maltophilia assessed as inhibition of microbial growth up to 50 ug/ml incubated for 24 hrs by microdilution assay
# Assay type: functional
# Details: not given
row,SMILES,Activity
1,COc1cc(C[C@@H](C)[C@@H](C)Cc2ccc(OC(=O)c3ccccc3)c(OC)c2)ccc1OC(=O)c1ccccc1,inactive
2,COc1cc(C[C@@H](C)[C@@H](C)Cc2ccc(OC(=O)c3ccc(Br)cc3)c(OC)c2)ccc1O (racemic),inactive
3,COc1cc(C[C@@H](C)[C@@H](C)Cc2ccc(OC(=O)c3ccccc3)c(OC)c2)ccc1O (racemic),inactive
4,COc1cc(C[C@@H](C)[C@@H](C)Cc2ccc(OC(=O)c3ccccc3[N+](=O)[O-])c(OC)c2)ccc1OC(=O)c1ccccc1[N+](=O)[O-],inactive
5,COc1cc(C[C@@H](C)[C@@H](C)Cc2ccc(OC(=O)c3ccccn3)c(OC)c2)ccc1OC(=O)c1ccccn1,inactive

# System: Acinetobacter baumannii
# Experiment: Antibacterial activity against carbapenem-resistant Acinetobacter baumannii (12-666) assessed as inhibition of microbial growth up to 50 ug/ml incubated for 24 hrs by microdilution assay
# Assay type: functional
# Details: not given
row,SMILES,Activity
1,COc1cc(C[C@@H](C)[C@@H](C)Cc2ccc(OC(=O)c3ccccc3)c(OC)c2)ccc1OC(=O)c1ccccc1,inactive
2,COc1cc(C[C@@H](C)[C@@H](C)Cc2ccc(OC(=O)c3ccc(Br)cc3)c(OC)c2)ccc1O (racemic),inactive
3,COc1cc(C[C@@H](C)[C@@H](C)Cc2ccc(OC(=O)c3ccccc3)c(OC)c2)ccc1O (racemic),inactive
4,COc1cc(C[C@@H](C)[C@@H](C)Cc2ccc(OC(=O)c3ccccc3[N+](=O)[O-])c(OC)c2)ccc1OC(=O)c1ccccc1[N+](=O)[O-],inactive
5,COc1cc(C[C@@H](C)[C@@H](C)Cc2ccc(OC(=O)c3ccccn3)c(OC)c2)ccc1OC(=O)c1ccccn1,inactive

# System: Vero
# Experiment: Cytotoxicity against African green monkey Vero cells assessed as reduction in cell viability incubated for 24 hrs by trypan blue staining based assay
# Details: Chlorocebus sabaeus
row,SMILES,IC50 [µg/mL]
1,COc1cc(C[C@@H](C)[C@@H](C)Cc2ccc(OC(=O)c3ccc(Br)cc3)c(OC)c2)ccc1O (racemic),112
2,COc1cc(C[C@@H](C)[C@@H](C)Cc2ccc(OC(=O)c3ccccc3)c(OC)c2)ccc1O (racemic),125

# System: Mycobacterium tuberculosis
# Experiment: Antimycobacterial activity against Mycobacterium tuberculosis H37Rv ATCC 27294 assessed as inhibition of mycobacterial growth up to 50 ug/ml incubated for 2 weeks by MABA method
# Assay type: functional
# Details: not given
row,SMILES,growth inhibition (GI)
1,COc1cc(C[C@@H](C)[C@@H](C)Cc2ccc(OC(=O)c3ccccc3)c(OC)c2)ccc1OC(=O)c1ccccc1,inactive
2,COc1cc(C[C@@H](C)[C@@H](C)Cc2ccc(OC(=O)c3ccccc3[N+](=O)[O-])c(OC)c2)ccc1OC(=O)c1ccccc1[N+](=O)[O-],inactive
3,COc1cc(C[C@@H](C)[C@@H](C)Cc2ccc(OC(=O)c3ccccn3)c(OC)c2)ccc1OC(=O)c1ccccn1,inactive

# System: Klebsiella pneumoniae
# Experiment: Antibacterial activity against extended-spectrum beta-lactamase-positive Klebsiella pneumoniae (14-2081) assessed as inhibition of microbial growth up to 50 ug/ml incubated for 24 hrs by microdilution assay
# Assay type: functional
# Details: not given
row,SMILES,Activity
1,COc1cc(C[C@@H](C)[C@@H](C)Cc2ccc(OC(=O)c3ccccc3)c(OC)c2)ccc1OC(=O)c1ccccc1,inactive
2,COc1cc(C[C@@H](C)[C@@H](C)Cc2ccc(OC(=O)c3ccc(Br)cc3)c(OC)c2)ccc1O (racemic),inactive
3,COc1cc(C[C@@H](C)[C@@H](C)Cc2ccc(OC(=O)c3ccccc3)c(OC)c2)ccc1O (racemic),inactive
4,COc1cc(C[C@@H](C)[C@@H](C)Cc2ccc(OC(=O)c3ccccc3[N+](=O)[O-])c(OC)c2)ccc1OC(=O)c1ccccc1[N+](=O)[O-],inactive
5,COc1cc(C[C@@H](C)[C@@H](C)Cc2ccc(OC(=O)c3ccccn3)c(OC)c2)ccc1OC(=O)c1ccccn1,inactive

# System: Escherichia coli
# Experiment: Antibacterial activity against extended-spectrum beta-lactamase-positive Escherichia coli (14-2081) assessed as inhibition of microbial growth up to 50 ug/ml incubated for 24 hrs by microdilution assay
# Assay type: functional
# Details: not given
row,SMILES,Activity
1,COc1cc(C[C@@H](C)[C@@H](C)Cc2ccc(OC(=O)c3ccccc3)c(OC)c2)ccc1OC(=O)c1ccccc1,inactive
2,COc1cc(C[C@@H](C)[C@@H](C)Cc2ccc(OC(=O)c3ccc(Br)cc3)c(OC)c2)ccc1O (racemic),inactive
3,COc1cc(C[C@@H](C)[C@@H](C)Cc2ccc(OC(=O)c3ccccc3)c(OC)c2)ccc1O (racemic),inactive
4,COc1cc(C[C@@H](C)[C@@H](C)Cc2ccc(OC(=O)c3ccccc3[N+](=O)[O-])c(OC)c2)ccc1OC(=O)c1ccccc1[N+](=O)[O-],inactive
5,COc1cc(C[C@@H](C)[C@@H](C)Cc2ccc(OC(=O)c3ccccn3)c(OC)c2)ccc1OC(=O)c1ccccn1,inactive

# System: Providencia rettgeri
# Experiment: Antibacterial activity against NDM-1 positive Providencia rettgeri assessed as inhibition of microbial growth up to 50 ug/ml incubated for 24 hrs by microdilution assay
# Assay type: functional
# Details: not given
row,SMILES,Activity
1,COc1cc(C[C@@H](C)[C@@H](C)Cc2ccc(OC(=O)c3ccccc3)c(OC)c2)ccc1OC(=O)c1ccccc1,inactive
2,COc1cc(C[C@@H](C)[C@@H](C)Cc2ccc(OC(=O)c3ccc(Br)cc3)c(OC)c2)ccc1O (racemic),inactive
3,COc1cc(C[C@@H](C)[C@@H](C)Cc2ccc(OC(=O)c3ccccc3)c(OC)c2)ccc1O (racemic),inactive
4,COc1cc(C[C@@H](C)[C@@H](C)Cc2ccc(OC(=O)c3ccccc3[N+](=O)[O-])c(OC)c2)ccc1OC(=O)c1ccccc1[N+](=O)[O-],inactive
5,COc1cc(C[C@@H](C)[C@@H](C)Cc2ccc(OC(=O)c3ccccn3)c(OC)c2)ccc1OC(=O)c1ccccn1,inactive

# System: Pseudomonas aeruginosa
# Experiment: Antibacterial activity against carbapenem-resistant Pseudomonas aeruginosa (13-1391) assessed as inhibition of microbial growth up to 50 ug/ml incubated for 48 hrs by microdilution assay
# Assay type: functional
# Details: not given
row,SMILES,Activity
1,COc1cc(C[C@@H](C)[C@@H](C)Cc2ccc(OC(=O)c3ccccc3)c(OC)c2)ccc1OC(=O)c1ccccc1,inactive
2,COc1cc(C[C@@H](C)[C@@H](C)Cc2ccc(OC(=O)c3ccc(Br)cc3)c(OC)c2)ccc1O (racemic),inactive
3,COc1cc(C[C@@H](C)[C@@H](C)Cc2ccc(OC(=O)c3ccccc3)c(OC)c2)ccc1O (racemic),inactive
4,COc1cc(C[C@@H](C)[C@@H](C)Cc2ccc(OC(=O)c3ccccc3[N+](=O)[O-])c(OC)c2)ccc1OC(=O)c1ccccc1[N+](=O)[O-],inactive
5,COc1cc(C[C@@H](C)[C@@H](C)Cc2ccc(OC(=O)c3ccccn3)c(OC)c2)ccc1OC(=O)c1ccccn1,inactive

# System: Mycobacterium tuberculosis
# Experiment: Antimycobacterial activity against Mycobacterium tuberculosis H37Rv ATCC 27294 assessed as inhibition of mycobacterial growth incubated for 2 weeks by MABA method
# Assay type: functional
# Details: not given
row,SMILES,-logMIC
1,COc1cc(C[C@@H](C)[C@@H](C)Cc2ccc(OC(=O)c3ccccc3)c(OC)c2)ccc1OC(=O)c1ccccc1,4.14
2,COc1cc(C[C@@H](C)[C@@H](C)Cc2ccc(OC(=O)c3ccc(Br)cc3)c(OC)c2)ccc1O (racemic),4.58
3,COc1cc(C[C@@H](C)[C@@H](C)Cc2ccc(OC(=O)c3ccccc3)c(OC)c2)ccc1O (racemic),4.61
4,COc1cc(C[C@@H](C)[C@@H](C)Cc2ccc(OC(=O)c3ccccc3[N+](=O)[O-])c(OC)c2)ccc1OC(=O)c1ccccc1[N+](=O)[O-],4.03
5,COc1cc(C[C@@H](C)[C@@H](C)Cc2ccc(OC(=O)c3ccccn3)c(OC)c2)ccc1OC(=O)c1ccccn1,3.92

# Same assay, conditions: Mycobacterium tuberculosis, H37Rv ATCC 27294, 336 h
row,SMILES,MIC [µg/mL]
1,COc1cc(C[C@@H](C)[C@@H](C)Cc2ccc(OC(=O)c3ccc(Br)cc3)c(OC)c2)ccc1O (racemic),12.5
2,COc1cc(C[C@@H](C)[C@@H](C)Cc2ccc(OC(=O)c3ccccc3)c(OC)c2)ccc1O (racemic),12.5

# System: Klebsiella pneumoniae
# Experiment: Antibacterial activity against NDM-1 positive Klebsiella pneumoniae (14-3335) assessed as inhibition of microbial growth up to 50 ug/ml incubated for 24 hrs by microdilution assay
# Assay type: functional
# Details: not given
row,SMILES,Activity
1,COc1cc(C[C@@H](C)[C@@H](C)Cc2ccc(OC(=O)c3ccccc3)c(OC)c2)ccc1OC(=O)c1ccccc1,inactive
2,COc1cc(C[C@@H](C)[C@@H](C)Cc2ccc(OC(=O)c3ccc(Br)cc3)c(OC)c2)ccc1O (racemic),inactive
3,COc1cc(C[C@@H](C)[C@@H](C)Cc2ccc(OC(=O)c3ccccc3)c(OC)c2)ccc1O (racemic),inactive
4,COc1cc(C[C@@H](C)[C@@H](C)Cc2ccc(OC(=O)c3ccccc3[N+](=O)[O-])c(OC)c2)ccc1OC(=O)c1ccccc1[N+](=O)[O-],inactive
5,COc1cc(C[C@@H](C)[C@@H](C)Cc2ccc(OC(=O)c3ccccn3)c(OC)c2)ccc1OC(=O)c1ccccn1,inactive

# System: not listed separately
# Experiment: Selectivity index, ratio of IC50 for cytotoxicity against African green monkey Vero cells to MIC for Mycobacterium tuberculosis H37Rv ATCC 27294
# Assay type: toxicity, cell-based
# Details: read-out: Selectivity Index
row,SMILES,selectivity ratio
1,COc1cc(C[C@@H](C)[C@@H](C)Cc2ccc(OC(=O)c3ccc(Br)cc3)c(OC)c2)ccc1O (racemic),8.93
2,COc1cc(C[C@@H](C)[C@@H](C)Cc2ccc(OC(=O)c3ccccc3)c(OC)c2)ccc1O (racemic),9.97

# System: Escherichia coli
# Experiment: Antibacterial activity against oxacillin-resistant Escherichia coli OXA-48 assessed as inhibition of microbial growth up to 50 ug/ml incubated for 24 hrs by microdilution assay
# Assay type: functional
# Details: not given
row,SMILES,Activity
1,COc1cc(C[C@@H](C)[C@@H](C)Cc2ccc(OC(=O)c3ccccc3)c(OC)c2)ccc1OC(=O)c1ccccc1,inactive
2,COc1cc(C[C@@H](C)[C@@H](C)Cc2ccc(OC(=O)c3ccc(Br)cc3)c(OC)c2)ccc1O (racemic),inactive
3,COc1cc(C[C@@H](C)[C@@H](C)Cc2ccc(OC(=O)c3ccccc3)c(OC)c2)ccc1O (racemic),inactive
4,COc1cc(C[C@@H](C)[C@@H](C)Cc2ccc(OC(=O)c3ccccc3[N+](=O)[O-])c(OC)c2)ccc1OC(=O)c1ccccc1[N+](=O)[O-],inactive
5,COc1cc(C[C@@H](C)[C@@H](C)Cc2ccc(OC(=O)c3ccccn3)c(OC)c2)ccc1OC(=O)c1ccccn1,inactive
